Test system: 362531-283-R-J2-PDC complex spheroid viability
Assay: Anticancer human tumor 362531-283-R-J2-PDC patient-derived colon adenocarcinoma cell line growth inhibition [RAS]
Details: for IC50: curve of first compound; for viability, T/C: stronger effect = lower value
From the text: RAS pathway inhibitors in Combinations in Complex Spheroids
A high-throughput screen of multi-cell type tumor spheroids was designed to identify active combinations of RAS pathway inhibitors and targeted small molecules. Complex spheroids include a stromal component modeled by human endothelial cells (HUVEC) and fibroblasts modeled by human mesenchymal stem cells (MSCs). The concentration ranges selected for each drug and investigational agent were based upon clinically achievable concentrations if the clinical Cmax of the agent was known.
Compounds. The drugs and investigational agents: abemaciclib (NSC768073), cobimetinib (NSC768068), divarasib (GDC6063, NSC841802), docetaxel (NSC628503), GDC-1971 (RLY-1971, NSC841576), gemcitabine (NSC613327), inavolisib (NSC800729), ipatasertib (NSC767898), KB-0742 (NSC834161), MRTX-1133 (NSC836407), osimertinib (NSC779217), RMC-4630 (NSC839698), RMC-6236 (NSC851965), RMC-6291 (NSC852671), Ro-3306 (NSC812927), sapanisertib (NSC764658), SN-38 (NSC673596), staurosporine (NSC755774), SY5609 (NSC837396), and tovorafenib (DAY101, NSC766906), were obtained from the National Cancer Institute (NCI) Developmental Therapeutics Program Chemical Repository. The FDA-approved anticancer drug set is available from the NCI Developmental Therapeutics Program. […] The stock solutions were prepared in dimethyl sulfoxide (DMSO, Sigma-Aldrich, St. Louis, MO, cat. D2650) at 800-fold the tested concentration and stored at -70 degrees C prior to their use. All drugs and investigational agents were tested over a range starting from a high concentration at or near the clinical Cmax and decreasing in half-log increments. If the clinical Cmax for an agent had not been determined, the highest concentration tested was 10 microM.
Cell Culture. All cells were maintained in an incubator at 37 degrees C and 5% CO2 with 95% humidity. The PDC lines were cultured according to standard operating procedures established by the NCI PDMR. All PDCs were thawed and cultured in Matrigel-coated flasks prepared with a working solution of 1X Ham's F-12 nutrient mix, without supplementation (Invitrogen, Waltham, MA, cat. 11765054), 100 U/mL penicillin-streptomycin (Invitrogen, cat. 15140122), and 2.5% Matrigel (Corning Inc., Corning, NY, cat. 354248) for the first three passages. The 362531-283-R-J2-PDC and 782815-120-R-J1-PDC lines were cultured in 6C/Colon 1B media, which includes advanced DMEM/F-12 (Thermo Fisher Scientific, cat. 12634028), 10 mM HEPES (Thermo Fisher Scientific, cat. 15630080), 1X GlutaMAX supplement (Thermo Fisher Scientific, cat. 35050061), 0.1 mg/mL primocin (InvivoGen, San Diego, CA, cat. ant-pm-2), 10% defined fetal bovine serum, heat inactivated (HyClone Laboratories Inc., Logan, UT, cat. SH30070.03HI), 50% L-WRN conditioned media (ATCC, cat. CRL-3276), 1.25 mM N-Acetyl-L-cysteine (Sigma-Aldrich, cat. A9165), 10 mM nicotinamide (Sigma-Aldrich, cat. N0636), 1X B-27 supplement (Thermo Fisher Scientific, cat. 17504044), 1X N-2 supplement (Thermo Fisher Scientific, cat. 17502048), 50 ng/mL human EGF (Thermo Fisher Scientific, cat. PHG0311), and 10 microM Y-27632 dihydrochloride (Tocris Bioscience, cat. 1254). The K12877-001-R-J1-PDC line was cultured in 6I media, which includes all 6C/Colon 1B media plus 10 ng/mL human FGF-10 (PeproTech, cat. 100-26), 1 ng/mL human FGF-2 (PeproTech, cat. 100-18B), 1 µM prostaglandin E2 (Tocris Bioscience, cat. 2296), […] hydrocortisone (Sigma-Aldrich, cat. H4001), and […] bovine insulin (Sigma-Aldrich, cat. I6634). The K86415-001-R-J1-PDC line was cultured in 6D media, which includes all 6C/Colon 1B media components minus the L-WRN conditioned media. The 485176-168-R4-J1-PDC was cultured in PANC media, which includes all 6C/Colon 1B media plus 100 ng/mL human FGF-10 (PeproTech, cat. 100-26), 500 nM SB-431542 (Selleckchem, cat. S1067), and 10 nM gastrin (Tocris Bioscience, cat. 3006). […]
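Also: spheroids exposed to the agents for 7 days before readout.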
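For viability, T/C in this document: luminescence viability as percent of DMSO vehicle control wells.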

`Cc1nc(N2CCC3(CC2)COC(C)C3N)c(CO)nc1Sc1ccnc(N)c1Cl` (configuration not stated) + CCn1c(-c2cc(N3CCN(C)CC3)cnc2C(C)OC)c2c3cc(ccc31)-c1csc(n1)CC(NC(=O)C1CC1C)C(=O)N1CCCC(N1)C(=O)OCC(C)(C)C2 gave an IC50 (second compound 0.000949 µM) of over 10000 nM, an IC50 (second compound 0.003 µM) of over 10000 nM and an IC50 (second compound 0.00949 µM) of 7340 nM. The IC50 (second compound 0.03 µM) was 1870 nM, the IC50 (second compound 0.0949 µM) was 529 nM and the IC50 (second compound 0.3 µM) was under 31.6 nM. The viability, T/C (second compound 0.000949 µM, first compound 0.0316 µM) was 95.4%, the viability, T/C (second compound 0.000949 µM, first compound 0.1 µM) was 122% and the viability, T/C (second compound 0.000949 µM, first compound 0.316 µM) was 89%. It also gave a viability, T/C (second compound 0.000949 µM, first compound 1 µM) of 93.7%, a viability, T/C (second compound 0.000949 µM, first compound 3.16 µM) of 86.4% and a viability, T/C (second compound 0.000949 µM, first compound 10 µM) of 70.5%. For the same molecule, the viability, T/C (second compound 0.003 µM, first compound 0.0316 µM) was 103%, the viability, T/C (second compound 0.003 µM, first compound 0.1 µM) was 113% and the viability, T/C (second compound 0.003 µM, first compound 0.316 µM) was 94.8%. For the same molecule, the viability, T/C (second compound 0.003 µM, first compound 1 µM) was 89.6%, the viability, T/C (second compound 0.003 µM, first compound 3.16 µM) was 92.8% and the viability, T/C (second compound 0.003 µM, first compound 10 µM) was 72.4%. It also gave a viability, T/C (second compound 0.00949 µM, first compound 0.0316 µM) of 104%, a viability, T/C (second compound 0.00949 µM, first compound 0.1 µM) of 113% and a viability, T/C (second compound 0.00949 µM, first compound 0.316 µM) of 84.7%. For the same molecule, the viability, T/C (second compound 0.00949 µM, first compound 1 µM) was 88.9%, the viability, T/C (second compound 0.00949 µM, first compound 3.16 µM) was 88% and the viability, T/C (second compound 0.00949 µM, first compound 10 µM) was 37.1%. For the same molecule, the viability, T/C (second compound 0.03 µM, first compound 0.0316 µM) was 102%, the viability, T/C (second compound 0.03 µM, first compound 0.1 µM) was 104% and the viability, T/C (second compound 0.03 µM, first compound 0.316 µM) was 74.3%. It also gave a viability, T/C (second compound 0.03 µM, first compound 1 µM) of 68.9%, a viability, T/C (second compound 0.03 µM, first compound 3.16 µM) of 36.9% and a viability, T/C (second compound 0.03 µM, first compound 10 µM) of 7.23%. It also gave a viability, T/C (second compound 0.0949 µM, first compound 0.0316 µM) of 77.7%, a viability, T/C (second compound 0.0949 µM, first compound 0.1 µM) of 77% and a viability, T/C (second compound 0.0949 µM, first compound 0.316 µM) of 65.2%. It also gave a viability, T/C (second compound 0.0949 µM, first compound 1 µM) of 30.9%, a viability, T/C (second compound 0.0949 µM, first compound 3.16 µM) of 8.1% and a viability, T/C (second compound 0.0949 µM, first compound 10 µM) of 4.24%. The viability, T/C (second compound 0.3 µM, first compound 0.0316 µM) was 47.3%, the viability, T/C (second compound 0.3 µM, first compound 0.1 µM) was 37.8% and the viability, T/C (second compound 0.3 µM, first compound 0.316 µM) was 18.9%. It also gave a viability, T/C (second compound 0.3 µM, first compound 1 µM) of 6.49%, a viability, T/C (second compound 0.3 µM, first compound 3.16 µM) of 5.54% and a viability, T/C (second compound 0.3 µM, first compound 10 µM) of 3.65%.

— PubChem BioAssay AID2060909 (Molecular Pharmacology Branch, DTP, NCI, 2025)
